# Results reported in patent publication US20260027179A1, “ANTI-SYNUCLEINOPATHY PEPTIDE AND METHODS TO TREAT NEURODEGENERATIVE DISEASES” (University of British Columbia, priority 2021, published 2026).
# Peptide text beside a SMILES is read from it. * marks the point of attachment. Cbz = O=C(OCc1ccccc1)*
# How the values were obtained:
# endogenous α-synuclein = target: T1, endogenous α-synuclein (Rattus norvegicus, UniProt P37377); test: Knockdown of endogenous α-synuclein in primary cortical neuron cultures, immunoblot; format: cell-based
# T1 construct: endogenous in cells; host or cells: primary rat cortical neurons (14 DIV) and primary rat ventral midbrain neurons (3 DIV)
# Procedure: Primary rat neuron cultures were prepared from embryos of pregnant Sprague-Dawley rats (E18). The experimental protocol was approved by the University of British Columbia Animal Care Committee. Briefly, the cortical tissue or ventral midbrain tissue was isolated into ice cold HBSS (Invitrogen, 14170-112) and then digested with 0.25% trypsin-EDTA at 37° C. for 30 min. After washing with warm DMEM (supplemented with 10% FBS) three times, neurons were suspended in neuron culture media and dissociated by trituration using varying sizes of pipettes. Neurons were then centrifuged, and the pellet was re-suspended in culture media, washed twice with culture media, and plated on the poly-D-lysine-coated plates. Neuron culture was maintained in the 37° C. incubator with […] and 5% CO2. The morning after culturing, 2/3 of the neuron culture media was replaced with fresh neuron culture media. Media was then replaced every 3-4 days. Primary rat cortical neuron culture was used 14 days in vitro (DIV) and primary rat ventral midbrain neuron culture was used 3 DIV.
# Tat-βsyn-degron and Tat-βsyn peptides were first dissolved in sterile water as a 25 mM stock solution and then diluted directly in the neurobasal culture media to make the desired working concentration. 20 mM MPP+iodide stock solution was made freshly each time and diluted in the neurobasal culture media directly to make the desired working concentration. For 48 hrs treatment, neuron culture media containing MPP+ and peptides were replaced every 24 hrs.
# (§1) Brain tissues or cultured cells were lysed on ice in the lysis buffer and then the solution was centrifuged at 14,000 rpm for 10 min at 4° C. Next, the supernatant was collected and protein concentrations were determined using a BCA protein assay kit (Thermo Scientific, 23227). Equal amount of protein samples was mixed with 4× sample buffer, boiled at 100° C. for 5 min, and separated on 10% sodium dodecyl sulphate-polyacrylamide gel electrophoresis (SDS-PAGE). Proteins were then transferred to Immobilon-PTM polyvinylidene fluoride (PVDF) membranes (Bio-Rad, 162-0177). The membranes were blocked with 5% non-fat milk in Tris-buffered saline containing 0.1% Tween-20 (TBST) for 1 hr at room temperature, and then incubated overnight at 4° C. with primary antibody. After washing 3×5 min in TBST, membranes were incubated with horseradish peroxidase-conjugated secondary antibody for 1 hr at room temperature. After another three washes with TBST, protein was visualized in the Bio-Rad Imager using ECL western blotting substrate (Pierce, 32016). The band density of each protein was quantified by the Bio-Rad Quantity One software and the relative optical density was analyzed relative to the loading control β-actin on the same membrane.
# [1] = target: T2, purified recombinant human α-synuclein (Homo sapiens, UniProt P37840); test: Biacore peptide-protein binding assay; conditions: 0.20-12.50 μM peptide, report point 20 seconds into dissociation
# T2 construct: His (histidine tag) (N); purchased Sigma S7820-500UG
# Procedure: Biacore experiments were performed using a Biacore 3000 instrument (GE Healthcare Biosciences, Upsala, Sweden) and HBS running buffer, pH 7.4, containing 10 mM HEPES, 150 mM NaCl, 3 mM EDTA, and 0.005% surfactant P20. A research-grade CM5 sensor chip was activated with a mixture containing equal molar amounts of EDC (N-ethyl-N′-(dimethylaminopropyl) carbodiide and NHS (N-hydroxysuccinimide). Purified recombinant human α-synuclein (N-terminal histidine tagged, Sigma, S7820-500UG), diluted in sodium acetate pH 3.1, was then injected and covalently coupled to a flow cell of the sensor chip surface by amide bonding. Residual unreacted sites were blocked with ethanolamine. A reference surface, to account for non-specific binding, was similarly generated by activating and blocking an adjacent flow cell. Approximately 1500 resonance units (RU), equivalent to a surface concentration of 1500 pg/mm^2 of α-synuclein, was immobilized.
# To ascertain the binding interaction between α-synuclein knockdown peptides and α-synuclein, synthetic Tat-βsyn-degron peptide or control tat peptide was serially diluted and sequentially injected over the active surface containing immobilized α-synuclein and the reference surface for 3 minutes at a flow rate of 30 μl/minute. The peptides were then allowed to dissociate for 3 minutes during which time HBS running buffer was injected. The resultant sensorgrams were double-referenced by subtracting out the binding on the reference surface and the response from the HBS blank buffer control. Binding response report points were collected 20 seconds into the dissociation phase of the interaction at time 200 seconds, which represents a stable binding response and excludes bulk refractive index changes and nonspecific binding.
# C57BL/6 mice = test: MPTP mouse model, rotarod test; format: in vivo; conditions: peptide 6 μmol/kg i.p. twice a day for 12 days, vs MPTP group
# Procedure: (§2) C57BL/6 mice (20-25 g) received intraperitoneal (i.p.) injection of 30 mg/kg parkinsonian toxin MPTP hydrochloride once a day for 5 days to induce dopaminergic neuron death in the substantia nigra, while the control mice received equal volumes of saline injection. 6 μmol/kg Tat-βsyn-degron peptide or control Tat-βsyn peptide was i.p. injected into the MPTP-treated mice every 12 hrs from the first day of MPTP injection until 7 days after the last injection of MPTP. All groups of mice then underwent a rotarod test before they were sacrificed.
# The rotarod test was performed as previously described (Heldermon, C. D. et al., PloS one 2, e772, doi:10.1371/journal.pone.0000772 (2007)), with modifications. Briefly, 6 days after the last MPTP injection, all mice received 4 rounds of training on the rotarod (Stoelting Co.). In the first two rounds of training, the rotarod was maintained at constant speed of 20 rpm for 3 min. In the second two rounds of training, the rotarod reversed rotation direction every 3 turns at the constant speed of 20 rpm for 3 min. […] Mice were tested 10 times at 20 min intervals, and the time that they remained on the rotarod during each test was recorded. […] The motor performance of the mouse was expressed as the latency to fall off the rotarod.
# dopaminergic neurons = test: MPTP mouse model, dopaminergic neuronal damage (TH immunoblotting, TH immunohistochemistry); format: in vivo; conditions: peptide 6 μmol/kg i.p. twice a day for 12 days
# Procedure: C57BL/6 mice were i.p. injected with 30 mg/kg parkinsonian toxin MPTP (or saline as control), once per day for 5 consecutive days, to induce dopaminergic neuron damage. The effects of MPTP administration on mouse rotarod performance and damage to dopaminergic neurons were then analyzed 1 week after the last injection of MPTP. To determine the effect of α-synuclein knockdown in protecting dopaminergic neurons against MPTP, the Tat-βsyn-degron peptide or its control Tat-βsyn (6 μmol/kg; i.p.) was used in some animals twice a day for 12 days, beginning the first day of MPTP injection. […] The striatum is a region that receives dopaminergic neuronal projections from the substantia nigra and is also deeply affected in PD. Consistent with the specific neurotoxic effects of MPTP on dopaminergic neurons, in mice receiving MPTP injection alone there was a significant loss of protein TH in both dopaminergic neurons in the substantia nigra-containing ventral midbrain (FIGS. 6a and 6c) and dopaminergic neuronal terminals in the striatum (FIGS. 6d and 6f). […] As expected, the specific knockdown of α-synuclein by Tat-βsyn-degron protected against MPTP-induced dopaminergic neuronal injury (FIGS. 6c and 6f).
# as §2, §1
# C57BL/6 mice were anesthetized with 1.5 g/kg urethane (Sigma, U2500) and then perfused with 0.9% saline and 4% paraformaldehyde. Brains were removed and fixed in 4% paraformaldehyde for 24 hrs before being transferred to 30% sucrose/PBS solution for cryoprotection. The brains were then sectioned into 30 μm slices using a Leica cryostat. After blocking and permeabilization using a PBS solution containing 1% BSA and 0.2% Triton X-100 for 30 min at room temperature, the brain slices were incubated with anti-TH antibody (1:800 dilution) for 3 days at 4° C. Finally, the TH-positive neurons in the substantia nigra and TH-positive neuronal terminals in the striatum were stained using the anti-mouse Ig HRP detection kit (BD Transduction Laboratories, 551011) according to manufacturer's instruction, and visualized under Zeiss Axio Observer D1 microscope. […]
molecule,measurement,setting,value
"CC(C)C[C@@H](C=O)NC(=O)[C@H](CC(C)C)NC(=O)[C@H](CC(C)C)NC(=O)OCc1ccccc1 [MG132, reference compound] (Cbz-Leu-Leu-Leu-aldehyde)",effect on Tat-βsyn-degron induced knockdown of α-synuclein,"endogenous α-synuclein; 10 μM MG132 + 50 μM Tat-βsyn-degron, 24 hrs",prevented Tat-βsyn-degron induced knockdown of α-synuclein
"YGRKKRRQRRR [Tat peptide, reference compound]",binding response to immobilized α-synuclein,[1],little binding
YGRKKRRQRRRGVLYVGSKTRRRRG [Tat-βsynN-degron],binding response to immobilized α-synuclein,[1],robust and similar binding
"YGRKKRRQRRRRTKSGVYLVG [Tat-βsyn, control peptide lacking the proteasomal targeting signal, reference compound]",MPTP-induced motor deficits (latency to fall off the rotarod),C57BL/6 mice,significantly reduced
same,"MPTP-induced dopaminergic neuronal damage (overall, FIG. 6 and FIG. 7a-d)",dopaminergic neurons,"small, non-significant decrease"
same,endogenous α-synuclein protein levels,"endogenous α-synuclein; bath application 24 hrs, 5-50 μM (control 50 μM), cortical neuron cultures",had no effect
